# Test results as given in patent US20180282279A1, “Pantothenamide Analogues” (Radboud Universitair Medisch Centrum, priority 2014, published 2018).
# Where two headings read alike, the source gives them in different places.
# Assays:
# [1] = tested on: Plasmodium falciparum NF54 parasites; experiment: P. falciparum asexual blood stage replication assay (SYBR Green); format: cell-based; conditions: NF54, 10% human serum, 72 incubation
# Description: Compounds were tested on their ability to inhibit replication of the human malaria parasite Plasmodium falciparum. To this end, Plasmodium falciparum NF54 parasites were cultured in RPMI1640 medium supplemented with 367 μM hypoxanthine, 25 mM HEPES, 25 mM sodiumbicarbonate and 10% human type A serum in an automated large-scale culture system as described before (Transactions of the Royal Society of Tropical Medicine and Hygiene, 1982. 76: p. 812-818). Compounds were diluted in DMSO and subsequently in culture medium to reach a DMSO concentration of 0.2%. 50 μl of diluted compound was transferred to a black 96 well plate. A culture of P. falciparum strain NF54 malaria parasites was diluted to a parasitaemia of 0.5% and a hematocrit of 3%. 50 μl of this diluted culture was added to each well in the 96 well plate._The outermost wells of the plate were filled with sterile water to prevent evaporation. The established antimalarial dihydroartemisinin (DHA) in DMSO acted as a positive control (MIN signal), and 0.1% DMSO acted as a negative control (MAX signal). The plates were incubated for 72 at 37° C., 3% 02, 5% CO2, 93% N2. Changes in parasite replication relative to the controls were monitored using the DNA-marker SYBR Green as described previously (Antimicrob Agents Chemother 48:1803-6). Data were analyzed by logistic regression using the formula: Y=Bottom+(Top-Bottom)/(1+10̂((Log IC50−X)*HillSlope)) and a least squares method to find the best fit.
# Using similar methods, IC50 values were determined for a variety of inverted pantothenamides, as listed in table 1 (see section: ‘Detailed description of the invention’)
# Staphylococcus aureus = experiment: Bacterial growth assay and MIC determination, S. aureus; format: cell-based; conditions: for antibiotic activity when tested in the presence of serum: 10% serum; for MIC: Staphylococcus aureus
# Description: (§1) Strains of Escherichia coli, Staphylococcus aureus and Staphylococcus epidermidis, were grown overnight in 1% Bacto tryptone medium (BD, Sparks, Md.). Streptococcus pyogenes was grown overnight in Bacto Todd Hewitt Broth medium (BD, Sparks, Md.). Cultures were then diluted 1:1,000 in fresh assay medium supplemented with or without 20% fetal bovine serum (FBS; HyClone, Celbio, Logan, Utah) and added to 96-well sterile enzyme-linked immunosorbent assay (ELISA) plates (100 μl per well). The compounds to be tested were diluted in the medium without serum and added to the bacteria (100 μl per well). Plates were incubated at 37° C., and bacterial growth was monitored over time by reading the optical density at 490 nm using a microplate reader (model 450; Bio-Rad Laboratories Inc., Hercules, Calif.). Streptococcus pneumoniae strains were grown to mid-log phase (OD620 of 0.3) and stored in 15% glycerol at […] till further use. Minimal inhibitory concentration (MIC) of antibiotics was determined according to standard procedures. Bacteria were diluted 10-fold in Mueller-Hinton medium (BD, Sparks, Md.) and added to 96-well sterile ELISA plates (150 μl per well). The compounds to be tested were diluted in the medium without serum and added to the bacteria (150 μl per well). Plates were incubated overnight at 37° C. in 5% CO2. The MIC was defined as the lowest concentration of compound at which no growth was visible with the naked eye.
# [2] = tested on: Staphylococcus epidermidis; experiment: Bacterial growth assay and MIC determination, S. epidermidis; format: cell-based; conditions: for MIC: Staphylococcus epidermidis
# Description: as §1
# Streptococcus pyogenes = experiment: Bacterial growth assay and MIC determination, S. pyogenes; format: cell-based; conditions: Streptococcus pyogenes; S. pyogenes, serum −; read-out: MIC
# Description: as §1
# Streptococcus pneumoniae = experiment: MIC determination, S. pneumoniae; format: cell-based; conditions: for MIC: Streptococcus pneumoniae
# Description: Streptococcus pneumoniae strains were grown to mid-log phase (OD620 of 0.3) and stored in 15% glycerol at […] till further use. Minimal inhibitory concentration (MIC) of antibiotics was determined according to standard procedures. Bacteria were diluted 10-fold in Mueller-Hinton medium (BD, Sparks, Md.) and added to 96-well sterile ELISA plates (150 μl per well). The compounds to be tested were diluted in the medium without serum and added to the bacteria (150 μl per well). Plates were incubated overnight at 37° C. in 5% CO2. The MIC was defined as the lowest concentration of compound at which no growth was visible with the naked eye.
# Escherichia coli = experiment: Bacterial growth assay and MIC determination, E. coli; format: cell-based; conditions: Escherichia coli, serum −, read-out: MIC
# Description: as §1
# [3] = Pharmacokinetic study in rats; format: in vivo; conditions: rat, blood, 50 mg/kg in saline, oral administration
# Description: To address the question if increased stability would also lead to improved bioavailability in vivo, a pharmacokinetic study was performed. Briefly, the pantothenamides N5-Pan (an antibacterial compound) and CXP18.3-002 (an antimalarial compound), and their corresponding inverted amides CXP18.6-013 and CXP18.6-006 were administered to rats at 50 mg/kg dissolved in saline. Blood samples were collected from 3 rats before the experiment and at 0.25, 0.5, 1, 2, 4, 6, 8, 12 and 24 h. The concentrations of the compounds were analyzed by LC-MS/MS (AB Sciex API-4000 system). Data were analyzed by the Non-compartmental analysis tool of Phoenix WinNonlin (Version 6.3).
# [4] = tested on: P. falciparum gametocytes; experiment: microbe, parasite or virus in culture; format: cell-based, Plasmodium falciparum; conditions: Plasmodium falciparum; 72 hour incubation; read-out: Gametocyte viability (pLDH) IC50
# Description: Compounds were tested for their ability to affect the viability of gametocytes, the sexually committed blood stages of P. falciparum that underlie transmission to the mosquito vector. To this end, two different assays were performed. The first assay monitored pLDH activity as a measure of viability of gametocytes (J Antimicrob Chemother. 2013 September; 68(9):2048-58). The second assay monitored the ability of gametocytes to form a female gamete by detection of the gamete-specific marker Pfs25. Plasmodium falciparum NF54 parasites were cultured in RPMI1640 medium supplemented with 367 μM hypoxanthine, 25 mM HEPES, 25 mM sodiumbicarbonate and 10% human type A serum in an automated large-scale culture system as described before (Transactions of the Royal Society of Tropical Medicine and Hygiene, 1982. 76: p. 812-818). Cultures were treated with 50 mM N-acetyl-D-glucosamine from day 4 till day 9 to kill asexual parasites. On day 11 gametocytes were isolated by discontinuous 63% Percoll gradient centrifugation. Compounds were diluted in DMSO and subsequently in culture medium to reach a DMSO concentration of 0.2%. To measure the effect of compounds of pLDH activity, gametocytes were seeded at a density of 3.5×10^4 gametocytes per well in a black 384 well plate in 30 μl of culture medium, and 30 μl of diluted compound was added. Following a 72 hour incubation at 37° C., 98% humidity, 93% N2, 4% CO2 and 3% O2, gametocyte viability was measured by a modified plasmodium lactate dehydrogenase assay by using resazurin as a substrate as previously described (Nature, 2013. 504(7479): p. 248-53). Assays were performed in quadruplicate (two different plates with two different gametocyte batches) and all plates included controls MIN (1 μM DHA), MAX (0.1% DMSO) and a serial dilution of reference compound dihydroartemisinin (DHA).
# [5] = tested on: P. falciparum gametocytes; experiment: Gametocyte female gametogenesis capacity assay (Pfs25 AlphaLISA); format: cell-based; conditions: Plasmodium falciparum; 72 hours incubation, Table 3; read-out: Gametocyte gametogenesis capacity (Pfs25) IC50
# Description: To monitor compound effects on the ability of a gametocyte to form a female gamete, day 11 (stage IV) gametocytes were seeded at a density of 4×10^5 gametocytes per well in a V-bottom plate in 50 μl culture medium. 50 μl of diluted compound was added to the gametocytes (0.1% DMSO final concentration) and plates were incubated for 72 hours at 37° C., 98% humidity, 93% N2, 4% CO2 and 3% O2. Subsequently, gametogenesis was induced by adding xanthurenic acid to a final concentration of 40 μM and plates were incubated for 16 hours at 20° C. Gametes were detected in a homogeneous proximity immunoassay on basis of Pfs25 expression by use of AlphaLISA technology (Perkin Elmer). All steps were performed at 20° C. Gametes were washed twice with PBS, lysed for 15 min in 10 μl 10 mM Tris pH 8.0/1% laurylsarcosyl/1 mM phenylmethanesulfonyl fluoride and combined with 10 μl 5 nM biotinylated mouse anti-Pfs25 monoclonal antibody 32F6244 in a white 384 well optiplate (Perkin Elmer). After 1 hour incubation 15 μl of 33 μg/ml acceptorbeads coated with mouse anti-Pfs25 monoclonal antibody 32F81 were added. After 1 hour incubation, 15 μl 33 μg/ml Streptavidin-conjugated donorbeads were added. Finally, after 1 hour incubation luminescence signals were monitored at the 615 nm emission wavelength following excitation at 680 nm using a fluorometer (Biotek Synergy 2). All compounds were tested in duplicate (24 hr) or triplicate (1 and 72 hr). Controls included MIN (0.1 μM epoxomicin) and MAX (0.1% DMSO). Data were analyzed by logistic regression using the formula: Y=Bottom+(Top−Bottom)/(1+10̂((Log IC50−X)*HillSlope)) and a least squares method to find the best fit.
# [6] = S. aureus, serum + (10% serum), read-out: MIC
# [7] = S. aureus, serum −, read-out: MIC
# [8] = Table 1, most sensitive species S. aureus (SA), read-out: MIC (μg/ml) for most sensitive bacterial species
# [9] = S. epidermidis, serum −, read-out: MIC
# [10] = S. pneumoniae, serum −, read-out: MIC
# [11] = Table 1, most sensitive species S. epidermidis (SE), read-out: MIC (μg/ml) for most sensitive bacterial species
Compound,IC50 [1],antibiotic activity when tested in the presence of serum (Staphylococcus aureus; S. aureus),MIC (Staphylococcus aureus; [6]),MIC (Staphylococcus aureus; [7]),MIC (Staphylococcus aureus; [8]),"MIC [2, 9]",MIC (Streptococcus pyogenes),activity of inverted pantothenamide compared to the parent compound (Streptococcus pneumoniae; S. pneumoniae),MIC (Streptococcus pneumoniae; [10]),MIC (Escherichia coli),activity of inverted pantothenamide compared to the parent compound ([2]; S. epidermidis),"MIC [2, 11]","MIC (Streptococcus pneumoniae; Table 1, S. pneumoniae (SPn), read-out: MIC (μg/ml) for most sensitive bacterial species)",AUC(0-inf) [3],Cmax [3],Tmax [3],half-life ([3]; elimination phase),IC50 [4],IC50 [5]
CCCCCCCC(=O)NCCNC(=O)[C@H](O)C(C)(C)CO [CXP18.6-012],0.34 µM,retained activity,4 µg/mL,1 µg/mL,1 µg/mL,16 µg/mL,32 µg/mL,loss of activity,> 32 µg/mL,> 256 µg/mL,,,,,,,,,
CCCCCC(=O)NCCNC(=O)[C@H](O)C(C)(C)CO [CXP18.6-013],0.63 µM,,,32 µg/mL,,1 µg/mL,2 µg/mL,,4 µg/mL,> 256 µg/mL,gain of antimicrobial activity,1 µg/mL,4 µg/mL,11600 ng·h/mL,12100 ng/mL,0.33 h,5.9 h,,
CCCCCCCCCC(=O)NCCNC(=O)[C@H](O)C(C)(C)CO [CXP18.6-014],7.5 µM,retained activity,1 µg/mL,1 µg/mL,1 µg/mL,1 µg/mL,32 µg/mL,,> 32 µg/mL,> 256 µg/mL,,1 µg/mL,,,,,,,
Cc1ccc(CCC(=O)NCCNC(=O)[C@H](O)C(C)(C)CO)c(F)c1 [CXP18.6-064],0.042 µM,,,,,,,,,,,2 µg/mL,,,,,,42 nM,17 nM
